Measured values reported in a compilation of properties of binary mixtures (doi:10.1021/acs.jced.2c00294).

Experiment: xn = mol fraction of the nth substance listed
Details: 101 kPa

CCCC[N+]1(C)CCCC1.N#C[N-]C#N + CCCC[N+]1(C)CCCC1.O=S(=O)([N-]S(=O)(=O)C(F)(F)F)C(F)(F)F
x2 = 0.5
Details	electrical conductivity [S/m]	viscosity [mPa·s]
298 K	0.565	51.3
303 K	0.642	36.1
308 K	0.746	32
313 K	0.857	26.7
328 K	–	17.06

CCCC[N+]1(C)CCCC1.N#C[N-]S(=O)(=O)C(F)(F)F + [Li+].[N-](C#N)S(=O)(=O)C(F)(F)F
x2 = 0
Details	electrical conductivity [S/m]	viscosity [mPa·s]
298 K	0.458	45.9
303 K	0.546	40.4
318 K	0.869	24.6
323 K	1	21.5
328 K	–	16.19

N#C[N-]S(=O)(=O)C(F)(F)F.[Li+] + CCCC[N+]1(CCCC1)C.[N-](C#N)S(=O)(=O)C(F)(F)F
Details	electrical conductivity, x1 = 0.05 [S/m]	electrical conductivity, x1 = 0.1 [S/m]	electrical conductivity, x1 = 0.2 [S/m]	viscosity, x1 = 0.05 [mPa·s]	viscosity, x1 = 0.1 [mPa·s]	viscosity, x1 = 0.2 [mPa·s]
298 K	0.314	0.227	0.08	73	107.9	379
303 K	0.372	–	0.101	62.2	–	312
308 K	0.442	0.334	0.127	50.5	73	243
313 K	0.523	0.401	0.156	42.4	60.7	191
318 K	0.611	0.513	–	35.8	50.6	–
323 K	–	–	0.234	–	–	121.8
328 K	–	–	–	23.6	–	99.9
